Assay [1] relates to patients undergoing surgery for colon cancer. As to the method:
All the patients entering this trial were about to undergo major abdominal surgery for the resection of carcinoma of the colon.
(§1) In the treated group GMDP was given per os on days -2 and -1 before the operation, and subcutaneously on days +1, +2 and +3 after the operation at a dose of 1-2 mg/day. The total dose of GMDP was […]. On day +5 after the operation neutrophil function was again assessed in all patients by the same parameters as specified above.
The patients were monitored for post-operative sepsis for four weeks following the operation. The septic complications which were scored included disseminated sepsis, pneumonia, peritonitis and abdominal abscesses, all of which are known to lead to septic shock.

The subject of assay [2] is neutrophils. As to the method:
(§2) Neutrophils were isolated from peripheral blood. 3.5 ml of heparinised blood was spread over M-PRM medium (Flow Laboratories) and centrifuged for 40 minutes at 400g at 20° C. […] The cells were adjusted to a concentration of 2×10^6 ml.
(§3) Adhesion: 100 μl of neutrophil suspension were placed in the wells of a flat-bottomed culture dish, and incubated at 37° C. for 60 minutes. After washing off the non-adhesive cells, the adhered neutrophils were fixed with ethanol and stained with Romanovsky-Giemsa dye. After washing out the free dye, the cell-associated dye was dissolved in isopropanol, and the optical density (OD650) of the solution was determined using an "ELISA II" microprocessor (Boehringer). The number of adherent cells was calculated by reference to a standard curve.
as §1

Assay [3] concerns patients suffering from acute sepsis. The following applies: GMDP parenterally 1-2 mg/day for five days. As to the method: The patients entering this trial were already suffering from serious systemic bacterial sepsis arising as a result of destructive cholecystitis, abscesses of the abdominal cavity, peritonitis, pancreonecrosis and post-operative pneumonia.
(§4) On day before treatment with GMDP (day -1) the neutrophil function of all patients was measured by the tests described above in Example 1. In the GMDP-treated group, GMDP was administered parenterally at a dose of 1-2 mg/day for five consecutive days. The total dose of GMDP was […].

For assay [4], the system named is neutrophils. How it is done:
as §2, §3, §4
One day after the cessation of GMDP treatment (day +6), neutrophil function was again measured in all patients.
The source holds these as a separate data set.

In assay [5] the test system is TNFα. Briefly: Example 5: TNF production in whole blood culture. Format: cell-based. Conditions: human blood diluted 1:2, 6 hours at 37° C., TNFα capture ELISA; FIG. 3. As to the method: Whole heparinized human blood was diluted 1:2 with RPMI and dispensed into 96-well microtitre plates. Individual wells were treated with saline, GMDP, MDP or LPS at the doses shown above. After incubating at 37° C. for 6 hours, the supernatants were assayed for TNFα by a standard capture ELISA method. […] This is a sensitive assay for measuring the effect of mediators on immune cell production of TNFα which is believed to be a primary mediator of inflammation, coagulopathy and death in sepsis and septic shock. It can be seen that GMDP is the least inflammatory mediator; the respective TNF inducing activities of these substances would […] correlate with their toxicities.

The test system of a further assay is IL-1. Nature of the assay: Example 6: IL-1 production by peritoneal macrophages in response to LPS. The following applies: 2 injections 12 hours apart; macrophages stimulated with LPS 25 μg/ml 24 hours; thymocyte co-stimulation bioassay; FIG. 4. Format: in vivo, BALB/c mice. How it is done: Mice (BALB/c, female) 13-14 g, 5 animals in each group, received 2 injections of MDPs, 12 hours apart. The MDPs tested were MDP, muroctasin, MDP-Thr, MDP-OBu, GMDP-LL, GMDP-Lys(St) and GMDP-A. After the last injection, peritoneal cells were collected and the induction of IL-1 secretion by peritoneal macrophages was tested.
Macrophages were collected from the peritoneal cavity of mice by lavage with Hank's balanced salt solution. After washing the cells, they were then placed in wells of flat-bottomed 96-well plates and incubated at 37° C. for 1 hour in RPMI containing 5% FCS. The plates were then washed with warm RPMI to remove non-adhering cells. LPS (25 μg/ml) was then added in fresh culture medium and the plates were further cultured for 24 hours.
Production of IL-1 by peritoneal macrophages was assayed by thymocyte co-stimulation bioassay. Thymocytes from (CBA*C57BL.6)F1 mice (106), PHA (1 μg.ml), and the tested supernatant (50 μl) were placed into the wells of flat-bottomed 96-well plates. Thymocyte proliferation rate was measured 72 hours later by the incorporation of 3H TdR (1 μCi.well) during 6 hours prior to culture termination.

For another assay, the system named is serum TNF. Briefly: Example 7: LPS induction of serum TNF. Type of assay: in vivo, BALB/c mice. Conditions: C. parvum-primed mice, 100 μg (equimolar) IP, LPS 25 μg 18 hours later; FIG. 5. As to the method: In this experiment, 4 compounds were tested and these are: MDP, GMDP-A, GMDP-OBu and GMDP. Saline was administered to control mice. BALB/c mice (6 mice/group) were injected intraperitoneally with 1.4 mg of dead C. parvum (0.2 ml of a 7 mg/ml suspension.). Mice were subsequently (2 weeks later) treated with saline, MDP (100 μg) or analogue (100 μg) in 0.5 ml saline IP. The dose of each `MDP` was adjusted so that animals received equimolar amounts. LPS (25 μg) was injected 18 hours after the injection of MDP/analogue and mice were subsequently sacrificed and bled out. TNF was determined by standard capture ELISA assay.

The test system of assay [6] is TNFα. Nature of the assay: Example 8: TNF induction by muramyl peptides. Format: in vivo, BALB/c mice. The following applies: C. parvum-primed mice, 100 μg (equimolar) IP, LPS 25 μg 18 hours later; FIG. 6. How it is done: Here, the muramyl peptides tested were prototype MDP, GMDP, GMDP-A, GMDP-OBu, GMDP-Lys(St), GMDPA-Lys(St), GMDP-Benz and Thr-MDP.
BALB/mice (6 mice/groups) were injected intraperitoneally with 1.4 mg of dead C. parvum (0.2 ml of a 7 mg/ml suspension). Mice were subsequently (2 weeks later) treated with saline, MDP (100 μg) or analogue (100 μg) in 0.5 ml saline IP. The dose of each `MDP` was adjusted so that animals received equimolar amounts. […] (25 μg) was injected 18 hours after the injection of MDP/analogue and the mice were subsequently sacrificed and bled out. TNF was determined by standard capture ELISA assay.

Where two headings read alike, the source gives them in different places.

As for `CC(=O)NC1C(OC2C(CO)OC(O)C(NC(C)=O)C2OC(C)C(=O)NC(C)C(=O)NC(CCC(=O)O)C(N)=O)OC(CO)C(O)C1O` [GMDP, N-acetyl-D-glucosaminyl-(β1-4)-N-acetylmuramyl-L-alanyl-D-isoglutamine], in assay [1] (16 treated patients, GMDP 1-2 mg/day per os days -2,-1, s.c. days +1 to +3, monitored 4 weeks), the “No of Patients with Septic Complications” value stood at 3. Further, the “Mortality (%)” value stood at 6.25% in assay [1] (GMDP before and after operation, control 15%); 14.3% in assay [3] (control 27%). Further, in assay [1] (GMDP before and after operation, control 50%), the “Incidence of Septic Complications (%)” value stood at 18.75%. For the same molecule, the Adhesion in the assay on neutrophils [2] (Day +5 after operation) was determined as 47.9 ± 12.6 O.D. 650μ; in the assay with neutrophils [2] (Day -3 (before treatment)), 39.8 ± 5.4 O.D. 650μ; in the assay with neutrophils [4] (Day +6) it was 52.3 ± 2.3 O.D. 650μ; in the assay with neutrophils [4] (Day -1 (before treatment)), 34.6 ± 6.2 O.D. 650μ. The “Adhesion % Change” value in the assay with neutrophils [2] (Day -3 to Day +5) is reported as “+20.4%”; in the assay on neutrophils [4] (Day -1 to Day +6), “+51.2%”. The “No of patients with progression of septic complications” value in assay [3] (14 treated patients) is given as 4. Besides, the “Incidence of progression of septic complications (%)” value in assay [3] (control 61%) came out at 28.6%. In addition, the “TNF production in whole blood culture” value in the assay on TNFα [5] is given as “poor inducer of TNF”. Further, the “suppression of IL-1 production” value with IL-1 is recorded as “suppress the IL-1 response to LPS”. The “effect on LPS induction of serum TNF” value in the assay with serum TNF is reported as “able to suppress the production of TNFα”. Moreover, the “effect on LPS-induced TNFα production” value in the assay with TNFα [6] was “suppress TNFα production”.

The record behind these values is patent publication US5506204A, “Muramyl compounds for treatment of septic shock” (Peptech (UK) Limited, priority 1991, dated 1996).
